Experimental data taken from patent US4716238A, “Chromene derivatives useful as insecticides” (Alkaloida Vegyeszeti Gyar, priority 1983, dated 1987).
Where two headings read alike, the source gives them in different places.

Assays:
[1] = system: domestic fly; experiment: Domestic fly test (larvae on treated nutrient medium); format: in vivo; details: Musca domestica
Procedure: domestic fly (Musca domestica)
The fly larvae are grown on a nutrient medium of the following composition: 2 ml of milk; 2 ml of water; 2 g of wheat bran; 0.1 ml of saturated alcoholic nipagin solution.
The nutrient medium is filled into cylindrical glass vials (30×100 mm) and 25 fly larvae are raised in each vial. The test compound is dissolved in milk; the end concentration (related to milk) amounts to 0.1% which corresponds to 0.05% (related to the total nutrient medium). The solution of the active ingredient is admixed with the nutrient medium whereupon […] of domestic fly larvae of the I. stage are placed into each vial and the vials are closed with a hard cotton-wool stopper. The nymphs emerging from the larvae are collected in each vial, counted and kept in a petri dish (diameter 25 mm) until flies hatch from the nymphs. The hatched flies are counted.

[2] = system: cabbage butterfly; experiment: Cabbage butterfly test (sprayed cabbage seedlings, II. stage larvae); format: in vivo; details: Pieris brassicae, 50 EC composition; for mortality at 0.1 % / survival at 0.1 %: concentration 0.1%; for mortality at 0.1 % / mortality at 0.01 %: read-out: Killing rate of larvae; for mortality at 0.01 % / survival at 0.01 %: concentration 0.01%
Procedure: cabbage butterfly (Pieris brassicae)
From the 50 EC of the test compound a dilution series is prepared with water and the host seedlings (cabbage) are sprayed with this composition until the spray runs down. The spray is allowed to dry whereupon 20 young larvae of the II. stage are placed on each treated plant and the seedlings are kept under so-called "long-day" illumination (18 hours of illumination and 6 hours of darkness). The nibbled plants are replaced by similarly sprayed plants if necessary. The killing rate of the insects, the growth rate of the larvae and the morphological deformations of the surviving nymphs and adults are registered.
In the 50 EC compositions P1 and test compound 1 are used in a concentration of 0.01%, and the other active ingredients in a concentration of 0.1%.

[3] = system: Caenorhabditis elegans adult nematodes; experiment: Nematocidal effect on Caenorhabditis elegans adult nematodes; format: in vivo; details: for Size of descendant population: control normal; for mortality at 200 µg/mL / mortality at 400 µg/mL: Caenorhabditis elegans, read-out: Lethality
Procedure: Caenorhabditis elegans 0.5 ml of the acetonous solution of the test compound is applied onto a NGM agar plate free from bacteria in a Petri dish. After the acetone was dried 25-30 young adults are placed on the plate. After 24 hours the surviving and killed […] are counted.

[4] = system: cotton bug; experiment: Cotton bug test (topical application on larvae of II. stage); format: in vivo, Dysdercus fasciatus
Procedure: cotton bug (Dysdercus fasciatus) A dilution series is prepared from the test compound with acetone, and 0.2 μl of each dilution is topically applied onto the back part of larvae of the II. stage of growth with the aid of a Hamiltion syringe. The active ingredient is absorbed through the cuticula. The animals are kept in a large glass and fed with cotton grains and water. After adult shedding the surviving insects are observed for eventual adultoid symptoms, the egg-reproduction and the development of the ovules is evaluated too. (Remark: in the cotton bug test 50 insects are used). In each Table the control value are disclosed too.

[5] = system: mustard beetle; experiment: Mustard beetle test; format: in vivo; details: Phaedon cochleariae; concentration 1%; control 100%; read-out: Survival of adults
Procedure: Two weeks old mustard seedlings are sprayed with a solution of 0.1 g of the test compound, 0.5 ml of dimethyl sulfoxide, and 10 μl of 50 EC composition in 10 ml of water. After the spray is dried, 20 mustard larvae of the II. stage are placed on each plant. The sprayed plants are changed every second day. The evaluation is based on the number of imagos hatching from the nymphs.

[6] = system: insects; details: prior art; cited from earlier work

Structure (SMILES) | survival at 0.1 % ([1]; read-out: Survival, adult) | survival at 0.1 % ([1]; read-out: Survival, nymph) | mortality at 0.1 % [2] | survival at 0.1 % ([2]; read-out: Survival, adult) | survival at 0.1 % ([2]; read-out: Survival, nymph) | Size of descendant population ([3]; 200 μg/ml) | Size of descendant population ([3]; 400 μg/ml) | other results
COc1c(OC(C)C)ccc2c1OC(C)(C)C=C2 [Compound 90, 7-isopropoxy-8-methoxy-2,2-dimethyl-2H-chromene] | 0% | 12% | 64% | 32% | 36% | reduced | reduced | mortality at 200 µg/mL ([3]; 24 h): 60%; mortality at 400 µg/mL ([3]; 24 h): 73%
CC(C)COc1ccc2c(c1)OC(C)(C)C=C2 [Compound 3] | 28.2% | 100% |  |  |  |  |  | 
C=CCOc1cc2c(cc1OCC=C)OC(C)(C)C=C2 [Compound 58] |  |  |  |  |  | some descendants | no descendants | mortality at 200 µg/mL ([3]; 24 h): 40%; mortality at 400 µg/mL ([3]; 24 h): 90%
CCOc1ccc2c(c1OC)OC(C)(C)C=C2 [Compound 87] | 4.2% | 5.4% | 76% | 24% | 24% | reduced | no descendants | mortality at 200 µg/mL ([3]; 24 h): 40%; mortality at 400 µg/mL ([3]; 24 h): 100%
COc1c(OCC(C)C)ccc2c1OC(C)(C)C=C2 [Compound 91, 7-isobutoxy-8-methoxy-2,2-dimethyl-2H-chromene] |  |  | 93% | 7% | 7% |  |  | 
COc1cc2c(cc1OCC(C)C)OC(C)(C)C=C2 [Compound 67] |  |  |  |  |  |  |  | LD50 [4]: 0.4 μg/insect
COc1ccc2c(c1)OC(C)(C)C=C2 [Compound P1, reference compound] |  |  |  |  |  | reduced | no descendants | survival at 0.1 % ([1]; 0.1% related to milk (0.05% of total nutrient medium), control 100%, read-out: Survival, adult): 33.3%; survival at 0.1 % ([1]; 0.1% related to milk (0.05% of total nutrient medium), control 100%, read-out: Survival, nymph): 100%; mortality at 0.01 % [2]: 41%; survival at 0.01 % ([2]; read-out: Survival, adult): 50%; survival at 0.01 % ([2]; read-out: Survival, nymph): 59%; mortality at 200 µg/mL ([3]; 200 μg/ml, 24 hours): 44%; mortality at 400 µg/mL ([3]; 400 μg/ml, 24 hours): 98%
CCCOc1ccc2c(c1OC)OC(C)(C)C=C2 [Compound 88, 7-n-propoxy-8-methoxy-2,2-dimethyl-2H-chromene] | 0% | 12.7% | 100% |  |  |  |  | survival at 1 % [5]: 45%
CCCOc1cc(OC)c2c(c1)OC(C)(C)C=C2 [Compound 107] | 6.4% | 9.1% | 88% | 12% | 12% |  |  | 
COc1cc(OCC(C)C)cc2c1C=CC(C)(C)O2 [Compound 110, 5-methoxy-7-isobutoxy-2,2-dimethyl-2H-chromene] | 0% | 0% | 100% |  |  |  |  | 
CCC(C)Oc1cc(OC)c2c(c1)OC(C)(C)C=C2 (centres unmarked) [Compound 109] |  |  | 100% |  |  |  |  | 
CCC(C)Oc1cc2c(cc1OC)C=CC(C)(C)O2 (centres unmarked) [Compound 66] |  |  |  |  |  |  |  | AJH effect [4]: 0.1 μg/insect; LD50 [4]: 0.4 μg/insect
Cc1cc(OC2CCCC2)cc2c1C=CC(C)(C)O2 [Compound 22] | 31.8% | 52.7% | 100% |  |  |  |  | 
Cc1cc(OC(C)C)cc2c1C=CC(C)(C)O2 [Compound 19] | 27.6% | 50.9% |  |  |  |  |  | 
CCC(C)Oc1ccc2c(c1OC)OC(C)(C)C=C2 (centres unmarked) [Compound 89, 7-sec.butoxy-8-methoxy-2,2-dimethyl-2H-chromene] |  |  | 100% |  |  | reduced | reduced | mortality at 200 µg/mL ([3]; 24 h): 25%; mortality at 400 µg/mL ([3]; 24 h): 85%
C#CCOc1cc(C)c2c(c1)OC(C)(C)C=C2 [Compound 30] | 10.6% | 50.9% | 83% | 17% | 17% | some descendants | no descendants | Remark ([3]; 200 μg/ml): paralysis; Remark ([3]; 400 μg/ml): paralysis; mortality at 200 µg/mL ([3]; 24 h): 20%; mortality at 400 µg/mL ([3]; 24 h): 30%
CCOc1cc2c(cc1OC)C=CC(C)(C)O2 [Compound P3, 6-methoxy-7-ethoxy-2,2-dimethyl-2H-chromene, reference compound] |  |  |  |  |  | some descendants | no descendants | activity relative to natural P1 and P2 [6]: considerably more active than natural P1 and P2; mortality at 200 µg/mL ([3]; 24 h): 70%; mortality at 400 µg/mL ([3]; 24 h): 90%
CCOc1cc(C)c2c(c1)OC(C)(C)C=C2 [Compound 17] | 14.8% | 40% | 81% | 19% | 19% |  |  | 
Cc1cc(OCC(C)C)cc2c1C=CC(C)(C)O2 [Compound 21] | 25.5% | 45.7% | 100% |  |  |  |  | survival at 1 % [5]: 27%
COc1cc(OC(C)C)cc2c1C=CC(C)(C)O2 [Compound 108] |  |  | 87% | 9% | 13% |  |  | 
COc1cc2c(cc1OC(C)C)OC(C)(C)C=C2 [6-methoxy-7-isopropoxy-2,2-dimethyl-chromene] |  |  |  |  |  |  |  | activity relative to natural P1 and P2 [6]: considerably more active than natural P1 and P2
CCCOc1ccc2c(c1)OC(C)(C)C=C2 [Compound 1] |  |  |  |  |  |  |  | mortality at 0.01 % [2]: 52%; survival at 0.01 % ([2]; read-out: Survival, adult): 39%; survival at 0.01 % ([2]; read-out: Survival, nymph): 48%
CC(C)=CCOc1cc2c(cc1OCC=C(C)C)OC(C)(C)C=C2 [Compound 60] |  |  |  |  |  |  |  | LD50 [4]: 0.6 μg/insect
COc1cc2c(cc1OC)OC(C)(C)C=C2 [Compound P2, reference compound] |  |  |  |  |  | no descendants | no descendants | mortality at 200 µg/mL ([3]; 200 μg/ml, 24 hours): 100%; mortality at 400 µg/mL ([3]; 400 μg/ml, 24 hours): 100%; AJH effect [4]: 1 μg/insect; LD50 [4]: 0.6 μg/insect; Sterilizing effect [4]: 10 μg/insect
CCC(C)Oc1cc(C)c2c(c1)OC(C)(C)C=C2 (centres unmarked) [Compound 20] | 12.5% | 25.4% | 11% | 14% | 19% |  |  | 
